Read-outs that look alike come from different tables or passages of the source.
What was measured:
Botrytis cinerea = test: In vitro nephelometric fungal growth test; settings: for CTP (retained non-fungicidal concentration applied in planta): inferior to MIG50 and inferior or equal to Cmax; for IC50: Botrytis cinerea, 33 h, read-out: MIG50 (concentration inducing 50% inhibition of fungal growth)
Experimental: (§1) For inoculum preparation, conidia of A. brassicicola or B. cinerea were collected from solid culture by adding water followed by gentle scraping of the agar plate. […] Growth was monitored by nephelometric reader (NEPHELOstar Galaxy®, BMG Labtech, Offenburg, Germany) at 25° C., with orbital shaking 5 min before measurement for 33 h. Turbidity was registered every 10 mins with a gain value of 75. Each well was measured during 0.1 s with a laser beam focus of 2.5 mm. A triplicate was realized for each condition. Area under the growth curve was determined by an Excel matrix developed in the lab. Area under the growth curve was normalized by area of positive control (filamentous fungi+DMSO less compound) and PDB medium to obtain a growth percentage.

IRE1 = biological target: T1, IRE1 (Saccharomyces cerevisiae, UniProt P32361); test: IRE1 inhibitors screening (inhibition of transcriptional activator HAC1 in yeast); format: cell-based
T1 construct: endogenous in cells
From the text: A series of natural products were screened for their capacity to inhibit the UPR pathway via the inhibition of IRE1 in an in vitro screening test, based inhibition of the transcriptional activator HAC1 in Saccharomyces cerevisiae (the IRE1 protein is the ‘sole effector of the UPR pathway in fungi).

Alternaria brassicicola = test: In vitro nephelometric fungal growth test; settings: for Cmax (concentration inducing at most 20% inhibition of fungal growth) / CTP (retained non-fungicidal concentration applied in planta): A. brassicicola; for CTP (retained non-fungicidal concentration applied in planta): inferior to MIG50 and inferior or equal to Cmax; for IC50: Alternaria brassicicola, 33 h, read-out: MIG50 (concentration inducing 50% inhibition of fungal growth)
Experimental: as §1

[1] = in vitro screening, IRE1 activity of less than 80% = retained as IRE1 inhibitor

T1 sequence (P32361 19-1115): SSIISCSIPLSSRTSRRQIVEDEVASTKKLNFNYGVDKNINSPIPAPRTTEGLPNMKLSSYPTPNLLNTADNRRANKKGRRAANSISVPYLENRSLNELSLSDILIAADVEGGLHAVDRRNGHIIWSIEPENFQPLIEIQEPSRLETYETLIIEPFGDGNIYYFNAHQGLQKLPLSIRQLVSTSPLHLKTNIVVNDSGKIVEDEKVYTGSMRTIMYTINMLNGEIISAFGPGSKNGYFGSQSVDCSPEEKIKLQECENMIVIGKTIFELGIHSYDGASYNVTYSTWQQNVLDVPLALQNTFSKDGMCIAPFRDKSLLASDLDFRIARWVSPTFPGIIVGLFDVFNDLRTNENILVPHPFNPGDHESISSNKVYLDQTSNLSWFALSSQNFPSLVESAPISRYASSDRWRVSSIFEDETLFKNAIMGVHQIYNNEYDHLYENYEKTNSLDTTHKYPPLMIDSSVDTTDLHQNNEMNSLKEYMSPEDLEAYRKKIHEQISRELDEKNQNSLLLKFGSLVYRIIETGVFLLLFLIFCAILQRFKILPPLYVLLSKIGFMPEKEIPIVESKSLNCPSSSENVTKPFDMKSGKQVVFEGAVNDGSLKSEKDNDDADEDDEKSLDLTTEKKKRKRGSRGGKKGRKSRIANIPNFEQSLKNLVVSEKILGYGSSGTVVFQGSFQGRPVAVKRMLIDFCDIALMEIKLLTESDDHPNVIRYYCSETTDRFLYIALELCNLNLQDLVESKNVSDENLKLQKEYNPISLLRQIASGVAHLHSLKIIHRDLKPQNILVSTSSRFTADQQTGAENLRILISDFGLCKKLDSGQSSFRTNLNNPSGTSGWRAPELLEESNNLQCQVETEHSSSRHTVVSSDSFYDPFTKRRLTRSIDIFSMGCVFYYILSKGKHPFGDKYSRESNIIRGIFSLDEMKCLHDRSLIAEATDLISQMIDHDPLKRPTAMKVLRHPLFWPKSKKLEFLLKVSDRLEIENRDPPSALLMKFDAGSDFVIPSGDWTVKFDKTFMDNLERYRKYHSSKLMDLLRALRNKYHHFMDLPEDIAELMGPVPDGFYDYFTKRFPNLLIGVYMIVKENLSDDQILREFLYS

CC(C)=CCc1c(O)cc2oc3c(O)cccc3c(=O)c2c1O [1,3,5-trihydroxy-2-prenylxanthone, 1,3,5-trihydroxy-2-(3-methylbut-2-enyl)xanthen-9-one]
Cmax (concentration inducing at most 20% inhibition of fungal growth) (Botrytis cinerea; B. cinerea): 100 µM | CTP (retained non-fungicidal concentration applied in planta) (Botrytis cinerea; B. cinerea): 25 µM | IC50 (Botrytis cinerea): > 100 µM | IRE1 inhibition (in words) (IRE1): inhibit IRE1 in a micromolar scale | μ (% activation) ± σ (IRE1; [1]): 57.4 ± 4.9% | Cmax (concentration inducing at most 20% inhibition of fungal growth) (Alternaria brassicicola): 100 µM | CTP (retained non-fungicidal concentration applied in planta) (Alternaria brassicicola): 50 µM | IC50 (Alternaria brassicicola): > 100 µM

CC(C)=CCc1c(O)cc(O)c2c(=O)c3cccc(O)c3oc12 [1,3,5-trihydroxy-4-prenylxanthone, 1,3,5-trihydroxy-4-(3-methylbut-2-enyl)xanthen-9-one]
Cmax (concentration inducing at most 20% inhibition of fungal growth) (Botrytis cinerea; B. cinerea): 100 µM | CTP (retained non-fungicidal concentration applied in planta) (Botrytis cinerea; B. cinerea): 25 µM | IC50 (Botrytis cinerea): > 100 µM | IRE1 inhibition (in words) (IRE1): inhibit IRE1 in a micromolar scale | μ (% activation) ± σ (IRE1; [1]): 70.9 ± 3.2% | IC50 (IRE1; read-out: IRE1 IC50): 12.8 µM | Cmax (concentration inducing at most 20% inhibition of fungal growth) (Alternaria brassicicola): 10 µM | CTP (retained non-fungicidal concentration applied in planta) (Alternaria brassicicola): 10 µM | IC50 (Alternaria brassicicola): 41.3 ± 3.7 µM

C=C(CO)C(=O)O[C@H]1CC(=C)[C@@H]2C[C@H](O)C(=C)[C@@H]2[C@H]2OC(=O)C(=C)[C@@H]21 [Cynaropicrin]
μ (% activation) ± σ (IRE1): 105.6 ± 0.7%

O=Cc1cc(I)cc(I)c1O [DISA1, 3,5-diiodosalicylaldehyde, reference compound]
Cmax (concentration inducing at most 20% inhibition of fungal growth) (Botrytis cinerea; B. cinerea): 2.5 µM | CTP (retained non-fungicidal concentration applied in planta) (Botrytis cinerea; B. cinerea): 2.5 µM | IC50 (Botrytis cinerea): 6.3 ± 0.7 µM | Cmax (concentration inducing at most 20% inhibition of fungal growth) (Alternaria brassicicola): 2 µM | CTP (retained non-fungicidal concentration applied in planta) (Alternaria brassicicola): 2 µM | IC50 (Alternaria brassicicola): 5.3 ± 0.1 µM

CC(C)=C/C=C/C(C)=C/[C@H]1CC[C@@H]2[C@@]3(C)CC[C@H](O)C(C)(C)[C@@H]3CC[C@@]2(C)[C@@]12COC(=O)C2 [Ebelin lactone]
μ (% activation) ± σ (IRE1; [1]): 102.5 ± 0.9%

Cc1cc(O)c2c(c1)C(=O)c1cc(O)cc(O)c1C2=O [Emodin]
μ (% activation) ± σ (IRE1; [1]): 104.5 ± 3.1%

Oc1cc(O)c2c(c1)O[C@H](c1ccc(O)c(O)c1)[C@H](O)C2 [Epicatechin]
μ (% activation) ± σ (IRE1; [1]): 101.4 ± 0.4%

CC(C)=CCC[C@@H](C)[C@@H]1CC[C@]2(C)C3=C(CC[C@@]12C)[C@@]1(C)CC[C@H](O)C(C)(C)[C@@H]1CC3 [Euphol]
μ (% activation) ± σ (IRE1; [1]): 105.3 ± 0.7%

C[C@H]1C(=O)CC[C@@H]2[C@]1(C)CC[C@H]1[C@@]2(C)CC[C@@]2(C)[C@@H]3CC(C)(C)CC[C@]3(C)CC[C@]12C [Friedelin]
μ (% activation) ± σ (IRE1; [1]): 104.6 ± 0.7%

CC(C)=CCc1c(O)cc2oc3c(CC=C(C)C)c(O)c(O)c(CC=C(C)C)c3c(=O)c2c1O [Garcinon E]
μ (% activation) ± σ (IRE1; [1]): 101.6 ± 3.9%

CC(C)=CCc1c(O)c(CC=C(C)C)c2oc3c(O)ccc(O)c3c(=O)c2c1O [Gartanin]
μ (% activation) ± σ (IRE1; [1]): 95.1 ± 5.5%

CC1=C[C@H]2c3c(c(O)c(O)c4oc5cc(O)cc(O)c5c(=O)c34)[C@H](c3cc(O)c(O)c4oc5cc(O)cc(O)c5c(=O)c34)[C@H]2C(C)(C)C1 [Griffipavixanthone]
μ (% activation) ± σ (IRE1; [1]): 96.8 ± 1.3%

C=CCc1ccc(O)c(-c2ccc(O)c(CC=C)c2)c1 [Honokiol]
μ (% activation) ± σ (IRE1; [1]): 93.9 ± 2%

C=CC(C)(C)c1c(OC)cc(O)c2c(=O)c3ccc(O)c(O)c3oc12 [Isocudraniaxanthone B]
μ (% activation) ± σ (IRE1; [1]): 94.3 ± 0.9%

O=C1C=CC(=O)c2c(O)cccc21 [Juglone, 5-hydroxy-1,4-naphthalenedione]
IC50 (IRE1): 12.8 µM | IRE1 inhibition (in words) (IRE1): inhibit IRE1 in a micromolar scale | μ (% activation) ± σ (IRE1; [1]): 43.5 ± 3.7%

CCCC(=O)c1c(O)c(CC=C(C)C)c2oc(=O)cc(-c3ccccc3)c2c1O [Mammea A/AC]
μ (% activation) ± σ (IRE1; [1]): 102.4 ± 1.7%

CC(Cc1ccccc1)NCCCc1ccccc1 (stereo not drawn) [N-(3-Phenyl-n-propyl)-1-phenyl-2-aminopropane]
μ (% activation) ± σ (IRE1): 102.6 ± 1%

O=C1C[C@@H](c2ccc(O)cc2)Oc2cc(O)cc(O)c21 [Naringenin]
μ (% activation) ± σ (IRE1; [1]): 101.1 ± 1.2%

COc1cccc2c1C(=O)c1nccc3cc4c(c-2c13)OCO4 [Oxostephanine, 15-methoxy-3,5-dioxa-11-azapentacyclo [10.7.1.0^2,6.0^8,20.0^14,19]icosa-(20),2(6),7,9,11,14(19),15,17-octaen-13-one]
μ (% activation) ± σ (IRE1; [1]): 77.5 ± 0.9%

O=C(CCc1ccc(O)cc1)c1c(O)cc(O)cc1O [Phloretin]
μ (% activation) ± σ (IRE1; [1]): 101.8 ± 1.7%

CC(=O)O[C@H]1C(=O)c2c(O)cc(O)cc2O[C@@H]1c1ccccc1 [Pinobanksine 3-O-acetate]
μ (% activation) ± σ (IRE1; [1]): 100.3 ± 2.7%

O=C1c2c(O)cc(O)cc2O[C@H](c2ccccc2)[C@H]1O [Pinobanksine]
μ (% activation) ± σ (IRE1; [1]): 101.5 ± 0.8%

CC(C)=CCOC(=O)/C=C/c1ccc(O)c(O)c1 [Prenyl caffeate]
μ (% activation) ± σ (IRE1; [1]): 102.4 ± 0.8%

Oc1cc(O)c2c(c1)O[C@H](c1ccc(O)c(O)c1)[C@H](O)[C@H]2c1c(O)cc(O)c2c1O[C@H](c1ccc(O)c(O)c1)[C@H](O)C2 [Procyanidin B2]
μ (% activation) ± σ (IRE1): 101.6 ± 1%

O=c1c(O)c(-c2ccc(O)c(O)c2)oc2cc(O)cc(O)c12 [Quercetin]
μ (% activation) ± σ (IRE1; [1]): 98.5 ± 1.4%

C[C@@H]1O[C@@H](Oc2c(-c3ccc(O)c(O)c3)oc3cc(O)cc(O)c3c2=O)[C@H](O)[C@H](O)[C@H]1O [Quercitrin]
μ (% activation) ± σ (IRE1): 102 ± 2.4%

C[n+]1cc2c3c(ccc2c2ccc4cc5c(cc4c21)OCO5)OCO3 [Sanguinarine]
μ (% activation) ± σ (IRE1): 91.1 ± 3.1%

O=C(O)C1=C[C@@H](O)[C@@H](O)[C@H](O)C1 [Shikimic acid]
μ (% activation) ± σ (IRE1; [1]): 102.0 ± 6.2%

c1cc2c(c3c1C[C@H]1c4cc5c(cc4CCN1C3)OCO5)OCO2 [Stylopine]
μ (% activation) ± σ (IRE1; [1]): 101.4 ± 4.1%

COc1cc(C(=O)O)cc(OC)c1O [Syringic acid]
μ (% activation) ± σ (IRE1; [1]): 97.8 ± 3.1%

CC1(C)C=Cc2c(cc3oc4ccc5c(c4c(=O)c3c2O)C=CC(C)(C)O5)O1 [Thwaitesixanthone]
μ (% activation) ± σ (IRE1; [1]): 101.1 ± 2.1%

CC1=CC(=O)C(C(C)C)=CC1=O [Thymoquinone]
μ (% activation) ± σ (IRE1; [1]): 104.3 ± 2.2%

COc1cc2c(cc1OC)[C@@H]1Cc3ccc(OC)c(OC)c3CN1CC2 [Tétrahydropalmatine]
μ (% activation) ± σ (IRE1; [1]): 101.8 ± 4.8%

O=c1ccc2ccc(O)cc2o1 [Umbelliferone]
μ (% activation) ± σ (IRE1; [1]): 105.3 ± 2.3%

COc1cc(C[C@H]2C(=O)OC[C@@H]2Cc2ccc3c(c2)OCO3)cc(OC)c1OC [Yatein]
μ (% activation) ± σ (IRE1): 100.7 ± 2.5%

COc1c(O)cc2oc3cc(O)c(CC=C(C)C)c(O)c3c(=O)c2c1CC=C(C)C [α-mangostin]
μ (% activation) ± σ (IRE1; [1]): 67.5 ± 0.2%

COc1cc2oc3cc(O)c(OC)c(CC=C(C)C)c3c(=O)c2c(O)c1CC=C(C)C [β-mangostin]
μ (% activation) ± σ (IRE1; [1]): 100.3 ± 4.7%

CC(C)=CCc1c(O)cc2oc3cc(O)c(O)c(CC=C(C)C)c3c(=O)c2c1O [γ-mangostin, 1,3,6,7-tetrahydroxy-2,8-bis(3-methylbut-2-enyl)xanthen-9-one]
Cmax (concentration inducing at most 20% inhibition of fungal growth) (Botrytis cinerea; B. cinerea): 100 µM | CTP (retained non-fungicidal concentration applied in planta) (Botrytis cinerea; B. cinerea): 25 µM | IC50 (Botrytis cinerea): > 100 µM | effect on the antifungal effects of ε-viniferin (in words) (Botrytis cinerea; γ-mangostin 100 μM + ε-viniferin 100 μM, B. cinerea, 35 hours): potentiating effect | IRE1 inhibition (in words) (IRE1): inhibit IRE1 in a micromolar scale | μ (% activation) ± σ (IRE1): 8.7 ± 5.5% | IC50 (IRE1; read-out: IRE1 IC50): 7.3 µM | Cmax (concentration inducing at most 20% inhibition of fungal growth) (Alternaria brassicicola): 5 µM | CTP (retained non-fungicidal concentration applied in planta) (Alternaria brassicicola): 5 µM | IC50 (Alternaria brassicicola): 12.2 ± 0.2 µM

(-)-Curine
μ (% activation) ± σ (IRE1; [1]): 100.0 ± 3.8%

(±)-Lindératine
μ (% activation) ± σ (IRE1; [1]): 103.0 ± 2.1%

(−)-Argemonine
μ (% activation) ± σ (IRE1): 102.6 ± 2.0%

(−)-monomethylester-15 dehydropinifolic acid
μ (% activation) ± σ (IRE1; [1]): 103.8 ± 1.1%

Anibacanine
μ (% activation) ± σ (IRE1; [1]): 100.2 ± 3.6%

Caledonixanthone K
μ (% activation) ± σ (IRE1; [1]): 100.7 ± 2%

Cycleanine
μ (% activation) ± σ (IRE1): 102.2 ± 1.9%

Mammea A/AA cycloF
μ (% activation) ± σ (IRE1; [1]): 93.8 ± 1.1%

Pseudoanibacanine
μ (% activation) ± σ (IRE1; [1]): 100.0 ± 3.7%

Steponine
μ (% activation) ± σ (IRE1; [1]): 103.4 ± 1.3%

Tetraprenyltoluquinone
μ (% activation) ± σ (IRE1; [1]): 100.8 ± 1.5%

demethylrubraxanthone
IC50 (IRE1; read-out: IRE1 IC50): 6.5 ± 0.4 µM
